Measured values taken from patent US20250108066A1, “TRINUCLEOTIDE CAP ANALOGS AND METHODS OF USE THEREOF” (TriLink BioTechnologies, LLC, priority 2022, published 2025).

Tested on: CD-1 mice
Assay: In vivo luciferase expression in mice injected with LNP:mRNA (Fluc mRNA capped with cap analog), whole-body bioluminescence imaging
Details: female CD-1 mice, LNP:mRNA 1 mg/kg single tail-vein bolus; for in vivo luciferase expression as compared to m7GpppA2′OMepG (Control): integrated flux from 3-48 hours, FIG. 2; for in vivo luciferase expression (translation) as compared to the same compound lacking the 3′OMe group on the m7G: pairwise comparison 3′OMe vs 3′OH on m7G, FIG. 4 / FIG. 2
Description: Female CD-1 mice of 8-9 weeks old were randomized into groups of five animals based on body weight at the beginning of the study (Charles River Laboratories, Discovery Research Services North Carolina). Lipid nanoparticle formulations including mRNA (capped using a cap analog recited in Table 1, N1-methylpseudouridine-5′-Triphosphate (N1-me-PsU) modified firefly luciferase (Fluc) mRNA) (LNP:mRNA) test articles were diluted in PBS to achieve 1 mg/kg delivery in a single bolus by tail-vein injection. The body weight of each mouse was measured once a day for the duration of the study and two blood draws were taken for serum analysis by Mouse Cytokine/Chemokine 26-Plex ProcartaPlex Panel 1 by Luminex platform (Thermo Fisher Scientific; Waltham, MA). Luciferase activity was measured by whole-body bioluminescence imaging on IVIS Spectrum CT system by Perkin Elmer (Greenville, SC) at six time points post mRNA injection (3 hours, 6 hours, 9 hours, 12 hours, 24 hours, and 48 hours hours post-injection). D-luciferin was delivered by intraperitoneal injection 10 minutes prior to each imaging session (150 mg/kg total). The measured luciferase expression results are shown in FIG. 2, showing the integrated flux from 3-48 hours. […] Luminescence intensity scale is on the left.

**Q.** For `C[n+]1cn([C@@H]2O[C@H](COP(=O)(O)OP(=O)([O-])OP(=O)(O)OC[C@]34COC(C3OP(=O)(O)OC[C@H]3O[C@@H](n5cnc6c(=O)[nH]c(N)nc65)C(O)C3O)[C@H](n3cnc5c(N)ncnc53)O4)C(O)C2O)c2nc(N)[nH]c(=O)c21` (stereo in doubt) [Compound 1, ^m7GpppA2′,4′-LNApG], which “in vivo luciferase expression as compared to m7GpppA2′OMepG (Control)” value is on record?
**A.** increased in vivo luciferase expression

**Q.** For `COC1C(O)[C@H](n2c[n+](C)c3c(=O)[nH]c(N)nc32)O[C@@H]1COP(=O)(O)OP(=O)([O-])OP(=O)(O)OC[C@]12COC(C1OP(=O)(O)OC[C@H]1O[C@@H](n3cnc4c(=O)[nH]c(N)nc43)C(O)C1O)[C@H](n1cnc3c(N)ncnc31)O2` (stereo in doubt) [Compound 2, ^m7G3′OMepppA2′,4′-LNApG], which “in vivo luciferase expression as compared to m7GpppA2′OMepG (Control)” value is on record?
**A.** increased in vivo luciferase expression

**Q.** What about the “in vivo luciferase expression (translation) as compared to the same compound lacking the 3′OMe group on the m7G” value of the same compound?
**A.** increased luciferase expression in vivo

**Q.** `COC1C(OP(=O)(O)OC[C@H]2O[C@@H](n3cnc4c(=O)[nH]c(N)nc43)C(O)C2O)[C@@H](COP(=O)(O)OP(=O)([O-])OP(=O)(O)OC[C@H]2O[C@@H](n3c[n+](C)c4c(=O)[nH]c(N)nc43)C(O)C2OC)O[C@H]1n1cnc2c(N)nc(N)nc21` (stereo in doubt) [Compound 8, ^m7G3′OMeppp(diaminopurine)2′OMepG] was tested. Which “in vivo luciferase expression as compared to m7GpppA2′OMepG (Control)” value did it give?
**A.** increased in vivo luciferase expression

**Q.** And the “in vivo luciferase expression (translation) as compared to the same compound lacking the 3′OMe group on the m7G” value?
**A.** increased luciferase expression in vivo

**Q.** `COC1C(OP(=O)(O)OC[C@H]2O[C@@H](n3cnc4c(=O)[nH]c(N)nc43)C(O)C2O)[C@@H](COP(=O)(O)OP(=O)([O-])OP(=O)(O)OC[C@H]2O[C@@H](n3c[n+](C)c4c(=O)[nH]c(N)nc43)C(OC)C2OC)O[C@H]1n1cnc2c(N)ncnc21` (stereo in doubt) [Compound 25, ^m7G2′OMe3′OMepppA2′OMepG] was tested. Which “in vivo luciferase expression (translation) as compared to the same compound lacking the 3′OMe group on the m7G” value did it give?
**A.** increased luciferase expression in vivo

**Q.** With `COC1[C@@H](OP(=O)(O)OC[C@H]2O[C@@H](n3cnc4c(=O)[nH]c(N)nc43)C(O)[C@H]2O)[C@@H](/C=C/P(=O)(O)OP(=O)([O-])OP(=O)(O)OC[C@H]2O[C@@H](n3c[n+](C)c4c(=O)[nH]c(N)nc43)C(O)[C@H]2OC)O[C@H]1n1cnc2c(N)ncnc21` (stereo partly drawn) [Compound 5, ^m7G3′-OMepppA2′OMe-5′vinylpG] as the compound, how does the “in vivo luciferase expression (translation) as compared to the same compound lacking the 3′OMe group on the m7G” value read?
**A.** increased luciferase expression in vivo

**Q.** Which results are given for `COC1C(OP(=O)(O)OC[C@H]2O[C@@H](n3cnc4c(=O)[nH]c(N)nc43)C(O)C2O)[C@@H](COP(=O)(O)OP(=O)([O-])OP(=O)(O)OC[C@H]2O[C@@H](n3c[n+](C)c4c(=O)[nH]c(N)nc43)C(O)C2OC)O[C@H]1n1cnc2c(N)ncnc21` (stereo partly drawn) [Compound 29, ^m7G3′OmepppA2′OMepG]?
**A.** in vivo luciferase expression as compared to m7GpppA2′OMepG (Control): increased in vivo luciferase expression; in vivo luciferase expression (translation) as compared to the same compound lacking the 3′OMe group on the m7G: increased luciferase expression in vivo

**Q.** Which results are given for `CNc1ncnc2c1ncn2[C@@H]1O[C@H](COP(=O)(O)OP(=O)([O-])OP(=O)(O)OC[C@H]2O[C@@H](n3c[n+](C)c4c(=O)[nH]c(N)nc43)C(O)C2OC)C(OP(=O)(O)OC[C@H]2O[C@@H](n3cnc4c(=O)[nH]c(N)nc43)C(O)C2O)C1OC` (stereo partly drawn) [Compound 30, ^m7G3′OMeppp^m6A2′OMepG]?
**A.** in vivo luciferase expression as compared to m7GpppA2′OMepG (Control): increased in vivo luciferase expression; in vivo luciferase expression (translation) as compared to the same compound lacking the 3′OMe group on the m7G: increased luciferase expression in vivo

**Q.** With `COC1C(OP(=O)(O)OC[C@H]2O[C@@H](n3cnc4c(=O)[nH]c(N)nc43)C(O)C2O)[C@@H](COP(=O)(O)OP(=O)([O-])OP(=O)(O)OC[C@]23COC(C2O)[C@H](n2c[n+](C)c4c(=O)[nH]c(N)nc42)O3)O[C@H]1n1cnc2c(N)ncnc21` (stereo partly drawn) [Compound 32, ^m7G2′4′LNApppA2′OMepG] as the compound, how does the “in vivo luciferase expression as compared to m7GpppA2′OMepG (Control)” value read?
**A.** increased in vivo luciferase expression
